Six compounds from ChEMBL document CHEMBL4673397, “Dihydroorotate Dehydrogenase Inhibitors for Treating Acute Myelogenous Leukemia (AML)” (ACS Med Chem Lett, 2021) can be followed below.

Experiment [1] has as its system MOLM-13. In words: Antiproliferative activity against human MOLM-13 cells assessed as reduction in cell viability measured after 72 hrs by Celltiter-Glo assay. Type of experiment: functional, cell-based. As to conditions: MOLM-13, 72 h. A general note: In ATP-based viability assays light output follows the ATP content of the culture.
Experiment [2] deals with Dihydroorotate dehydrogenase (quinone), mitochondrial (Homo sapiens, UniProt Q02127). Briefly: Inhibition of human DHODH (30 to 390 residues) expressed in Escherichia coli using dihydroorotate as substrate and CoQ10 as co-substrate by DCIP dye based spectrophotometry analysis.
Chain of Dihydroorotate dehydrogenase (quinone), mitochondrial (Q02127 whole entry, the tested form may be a part): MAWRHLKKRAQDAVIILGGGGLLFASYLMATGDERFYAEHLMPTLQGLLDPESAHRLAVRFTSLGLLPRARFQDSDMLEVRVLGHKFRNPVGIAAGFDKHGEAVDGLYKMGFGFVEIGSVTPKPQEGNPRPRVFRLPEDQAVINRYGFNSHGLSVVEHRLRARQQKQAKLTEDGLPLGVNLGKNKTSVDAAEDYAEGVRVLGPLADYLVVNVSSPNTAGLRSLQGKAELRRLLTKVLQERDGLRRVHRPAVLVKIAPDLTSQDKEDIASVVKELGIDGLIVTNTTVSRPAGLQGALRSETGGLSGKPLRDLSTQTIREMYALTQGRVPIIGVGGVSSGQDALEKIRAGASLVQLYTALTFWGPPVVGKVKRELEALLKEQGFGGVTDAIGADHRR

In general, pIC50 refers to the IC50 on a negative log10 scale, so that one unit is a factor of ten.

pIC50: −log10 of the molar value.

`C=C(C)c1cn(-c2c(F)cccc2Cl)c(=O)c2cc(F)c(-n3nc(CO)n(CC)c3=O)cc12`: the negative-log IC50 (pIC50) in experiment [1] is 10.00.

As to `CCn1c(CO)nn(-c2cc3c(C(C)C)cn(-c4ccccc4C)c(=O)c3cc2F)c1=O`, the pIC50 in experiment [1] was 9.70.

As for `C=C(C)c1cn(-c2ccccc2F)c(=O)c2cc(F)c(-n3nc(CO)n(CC)c3=O)cc12`, the pIC50 in experiment [1] is 9.52; in experiment [2], above 9.77.

For `C=C(C)c1cn(-c2c(F)ccc(OC)c2Cl)c(=O)c2cc(F)c(-n3nc(CO)n(CC)c3=O)cc12`, the pIC50 in experiment [1] was 10.00.

Consider `C=C(C)c1cn(-c2cc(F)ccc2C)c(=O)c2cc(F)c(-n3nc(CO)n(CC)c3=O)cc12`, for which, in experiment [1], the negative logarithm of the IC50 (pIC50) is 10.05.

On to `CCn1c(CO)nn(-c2cc3c(C(C)C)cn(-c4c(F)cccc4Cl)c(=O)c3cc2F)c1=O`, for which the pIC50 in experiment [1] was 9.70.
